What was measured:
sedge, umbrella = experiment: Test B flooded paddy test; type: in vivo, Cyperus difformis; conditions: Flood, 250 g ai/ha; 0 to 100 scale where 0 is no effect and 100 is complete control
Method in brief: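 Scores from 0 (no effect) to 100 (complete control) are visual comparisons with controls, taken 13 to 15 days after compound was applied into floodwater 3 cm deep around 2-leaf plants.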

pigweed = experiment: Test C preemergence; type: in vivo, Amaranthus retroflexus; conditions: preemergence
Method in brief: (§1)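 Injury was assessed visually against controls 13 to 15 days after application, with 0 meaning no effect and 100 full control; missing entries are shown as a dash. Preemergence sprays hit seeded loam–sand soil, postemergence sprays hit 1- to 4-leaf plants.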

velvetleaf [1] = experiment: Test C postemergence; type: in vivo, Abutilon theophrasti; conditions: for Plant response rating (0 to 100), Velvetleaf: 16 g ai/ha, 0 is no effect, 100 is complete control
Method in brief: as §1

Italian ryegrass = experiment: Test C postemergence; type: in vivo, Lolium multiflorum; conditions: for Plant response rating (0 to 100), Ryegrass, Italian: 16 g ai/ha, 0 is no effect, 100 is complete control
Method in brief: as §1

barnyardgrass = experiment: Test C postemergence; type: in vivo, Echinochloa crus-galli; conditions: for Plant response rating (0 to 100), Barnyardgrass: 16 g ai/ha, 0 is no effect, 100 is complete control
Method in brief: as §1

velvetleaf [2] = experiment: Test C preemergence; type: in vivo, Abutilon theophrasti; conditions: preemergence
Method in brief: as §1

oilseed rape = experiment: Test C postemergence; type: in vivo, Brassica napus; conditions: for Plant response rating (0 to 100), Oilseed Rape: 16 g ai/ha, 0 is no effect, 100 is complete control
Method in brief: as §1

corn = experiment: Test C preemergence; type: in vivo, Zea mays; conditions: for Corn plant response rating: preemergence; for Plant response rating, Corn: Preemergence, 31 g ai/ha, scale 0 to 100, 0 no effect, 100 complete control
Method in brief: as §1

lambsquarters = experiment: Test C postemergence; type: in vivo, Chenopodium album; conditions: for Plant response rating (0 to 100), Lambsquarters: 16 g ai/ha, 0 is no effect, 100 is complete control
Method in brief: as §1

galium = experiment: Test C postemergence; type: in vivo, Galium aparine; conditions: for Plant response rating (0 to 100), Galium: 16 g ai/ha, 0 is no effect, 100 is complete control
Method in brief: as §1

blackgrass = experiment: Test C preemergence; type: in vivo, Alopecurus myosuroides; conditions: for Blackgrass plant response rating: preemergence; for Plant response rating, Blackgrass: Preemergence, 31 g ai/ha, scale 0 to 100, 0 no effect, 100 complete control
Method in brief: as §1

wheat = experiment: Test A postemergence; type: in vivo, Triticum aestivum
Method in brief: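 Visual 0–100 rating (100 = complete control) taken about 10 d post-treatment relative to untreated checks. Preemergence: directed soil spray on sown loam/sand pots. Postemergence: seedlings 2–10 cm, 1–2 leaf. Non-phytotoxic solvent formulation with surfactant.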

wheat, winter = experiment: Test C postemergence; type: in vivo, Triticum aestivum; conditions: for Plant response rating (0 to 100), Wheat: 16 g ai/ha, 0 is no effect, 100 is complete control
Method in brief: as §1

[3] = 16 g ai/ha, scale 0 to 100 (0 no effect, 100 complete control)
[4] = 62 g ai/ha, scale 0 (no effect) to 100 (complete control)
[5] = 125 g ai/ha, scale 0 (no effect) to 100 (complete control)
[6] = 125 g ai/ha, postemergence, visual rating, scale 0 to 100 (0 no effect, 100 complete control)
[7] = Postemergence, 62 g ai/ha, scale 0 to 100 (0 no effect, 100 complete control)
[8] = 31 g ai/ha, postemergence, visual rating, scale 0 to 100 (0 no effect, 100 complete control), 13 to 15 days

Structure (SMILES): Cc1cnc(Oc2cccc(C#N)c2-n2cc(I)cn2)nc1 [Compound 136]
- Plant response rating, Sedge, Umbrella (sedge, umbrella): 70
- Pigweed plant response rating (pigweed; [3]): 0
- Pigweed plant response rating (pigweed; [4]): 40
- Pigweed plant response rating (pigweed; [5]): 100
- Plant response rating (0 to 100), Velvetleaf (velvetleaf [1]; postemergence): 10
- Plant response rating, Velvetleaf (velvetleaf [1]; [6]): 25
- Plant response rating, Velvetleaf (velvetleaf [1]; [7]): 10
- Plant response rating (0 to 100), Ryegrass, Italian (Italian ryegrass; postemergence): 0
- Plant response rating, Ryegrass, Italian (Italian ryegrass; [6]): 0
- Plant response rating, Ryegrass, Italian (Italian ryegrass; [7]): 0
- Plant response rating (0 to 100), Barnyardgrass (barnyardgrass; postemergence): 0
- Plant response rating, Barnyardgrass (barnyardgrass; [6]): 5
- Plant response rating, Barnyardgrass (barnyardgrass; Postemergence, 31 g ai/ha, scale 0 to 100 (0 no effect, 100 complete control), 13 to 15 days): 0
- Plant response rating, Barnyardgrass (barnyardgrass; [7]): 0
- Velvetleaf plant response rating (velvetleaf [2]; [3]): 5
- Velvetleaf plant response rating (velvetleaf [2]; [4]): 30
- Velvetleaf plant response rating (velvetleaf [2]; [5]): 90
- Plant response rating (0 to 100), Oilseed Rape (oilseed rape; postemergence): 0
- Plant response rating, Oilseed Rape (oilseed rape; [6]): 5
- Plant response rating, Oilseed Rape (oilseed rape; [7]): 5
- Corn plant response rating (corn; [3]): 5
- Corn plant response rating (corn; [4]): 5
- Corn plant response rating (corn; [5]): 15
- Plant response rating, Corn (corn): 0
- Plant response rating (0 to 100), Lambsquarters (lambsquarters; postemergence): 20
- Plant response rating, Lambsquarters (lambsquarters; [6]): 75
- Plant response rating, Lambsquarters (lambsquarters; [7]): 60
- Plant response rating (0 to 100), Galium (galium; postemergence): 20
- Plant response rating, Galium (galium; [6]): 60
- Plant response rating, Galium (galium; [7]): 55
- Blackgrass plant response rating (blackgrass; [3]): 0
- Blackgrass plant response rating (blackgrass; [4]): 75
- Blackgrass plant response rating (blackgrass; [5]): 80
- Plant response rating, Blackgrass (blackgrass): 0
- Wheat plant response rating (wheat; 125 g ai/ha, 0 to 100 scale where 0 is no effect and 100 is complete control): 0
- Plant response rating, Wheat (wheat; 500 g ai/ha, 0 to 100 scale where 0 is no effect and 100 is complete control): 50
- Plant response rating (0 to 100), Wheat (wheat, winter; postemergence): 0
- Plant response rating, Wheat (wheat, winter; [6]): 5
- Plant response rating, Wheat (wheat, winter; [7]): 5

Structure (SMILES): FCc1cn(-c2c(F)cccc2Oc2ncc(Cl)cn2)nn1 [Compound 154]
- Plant response rating, Sedge, Umbrella (sedge, umbrella): 30
- Pigweed plant response rating (pigweed; [3]): 85
- Pigweed plant response rating (pigweed; [4]): 100
- Pigweed plant response rating (pigweed; [5]): 100
- Plant response rating (0 to 100), Velvetleaf (velvetleaf [1]; postemergence): 25
- Velvetleaf plant response rating (velvetleaf [1]; [8]): 45
- Plant response rating, Velvetleaf (velvetleaf [1]; [6]): 80
- Plant response rating, Velvetleaf (velvetleaf [1]; [7]): 70
- Plant response rating (0 to 100), Ryegrass, Italian (Italian ryegrass; postemergence): 0
- Ryegrass, Italian plant response rating (Italian ryegrass; [8]): 0
- Plant response rating, Ryegrass, Italian (Italian ryegrass; [6]): 0
- Plant response rating, Ryegrass, Italian (Italian ryegrass; [7]): 0
- Plant response rating (0 to 100), Barnyardgrass (barnyardgrass; postemergence): 5
- Barnyardgrass plant response rating (barnyardgrass; [8]): 5
- Plant response rating, Barnyardgrass (barnyardgrass; [6]): 20
- Plant response rating, Barnyardgrass (barnyardgrass; [7]): 10
- Velvetleaf plant response rating (velvetleaf [2]; [3]): 85
- Velvetleaf plant response rating (velvetleaf [2]; [4]): 100
- Velvetleaf plant response rating (velvetleaf [2]; [5]): 100
- Plant response rating (0 to 100), Oilseed Rape (oilseed rape; postemergence): 40
- Oilseed Rape plant response rating (oilseed rape; [8]): 50
- Plant response rating, Oilseed Rape (oilseed rape; [6]): 80
- Plant response rating, Oilseed Rape (oilseed rape; [7]): 50
- Corn plant response rating (corn; [3]): 5
- Corn plant response rating (corn; [4]): 5
- Corn plant response rating (corn; [5]): 10
- Plant response rating, Corn (corn): 0
- Plant response rating (0 to 100), Lambsquarters (lambsquarters; postemergence): 20
- Lambsquarters plant response rating (lambsquarters; [8]): 55
- Plant response rating, Lambsquarters (lambsquarters; [6]): 70
- Plant response rating, Lambsquarters (lambsquarters; [7]): 60
- Plant response rating (0 to 100), Galium (galium; postemergence): 60
- Galium plant response rating (galium; [8]): 65
- Plant response rating, Galium (galium; [6]): 85
- Plant response rating, Galium (galium; [7]): 80
- Blackgrass plant response rating (blackgrass; [3]): 0
- Blackgrass plant response rating (blackgrass; [4]): 20
- Blackgrass plant response rating (blackgrass; [5]): 90
- Plant response rating, Blackgrass (blackgrass): 10
- Plant response rating, Wheat (wheat; 1000 g ai/ha, 0 to 100 scale, 0 no effect, 100 complete control): 80
- Plant response rating (0 to 100), Wheat (wheat, winter; postemergence): 0
- Wheat plant response rating (wheat, winter; [8]): 0
- Plant response rating, Wheat (wheat, winter; [6]): 5
- Plant response rating, Wheat (wheat, winter; [7]): 0

— US9695155B2, “Herbicidal substituted pyrimidinyloxy benzene compounds” (E. I. DU PONT DE NEMOURS AND COMPANY, priority 2013, dated 2017)
